# In publication PMC7796031, “Studies of Coumarin Derivatives for Constitutive Androstane Receptor (CAR) Activation” (Molecules, 2020):
# Entries after “also recorded” stand apart in the source; their conditions may differ.
# Target: T1, Constitutive androstane receptor (CAR) (Homo sapiens, UniProt Q14994)
# T1 construct: The pGL4-gtPBREM plasmid was transfected into Hep3B cells; endogenous in cells
# T1 sequence (Q14994 1-352): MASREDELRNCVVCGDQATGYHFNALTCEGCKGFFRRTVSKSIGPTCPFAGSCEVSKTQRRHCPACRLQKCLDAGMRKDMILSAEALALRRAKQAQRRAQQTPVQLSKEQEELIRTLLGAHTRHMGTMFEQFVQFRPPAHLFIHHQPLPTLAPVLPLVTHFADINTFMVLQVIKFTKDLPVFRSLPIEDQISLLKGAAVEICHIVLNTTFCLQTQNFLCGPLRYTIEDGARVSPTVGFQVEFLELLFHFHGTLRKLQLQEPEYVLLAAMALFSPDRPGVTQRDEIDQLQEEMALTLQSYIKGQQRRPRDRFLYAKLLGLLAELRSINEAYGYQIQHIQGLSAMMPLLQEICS
# Assay: In vitro CAR activation screening assay (UGT1A1 promoter gtPBREM-pGL4 luciferase reporter in Hep3B-gtPBREM cells)
# Assay type: cell-based
# Conditions: 10 μM
# Text: Until now, there is no commercially available high throughput screening method for CAR activation. Traditionally, CAR activation can be detected in western blots by its downstream signals such as UGT1A1, MRP2 or CYP2B6. […] However, this method was slow and pricy. In order to rapidly screen all the compounds for CAR activation at less cost, an in vitro CAR activation screening assay was developed: DNA was extracted from Hep3B cells and UGT1A1 promoter was obtained using PCR amplification. Ligation between UGT1A1 promoter and pGL4 vector was performed and the plasmid was amplified via E. coli replication. The desired plasmid was extracted from E. coli and transfected into Hep3B. The desired colony bearing UGT1A1 promoter-pGL4 plasmid was selected by neomycin. CAR activation was measured by adding tested compounds to Hep3B for several hours and luminescence was measured. Higher activation will get higher luminescence readout. This assay system was validated with two different CAR agonists: CITCO (direct agonist) and scoparone (an indirect agonist). […] Different concentration of scoparone at 1, 5, 10 and 20 μM had been tested either for luciferase assay or downstream UGT1A1 and MRP2 expression (data not shown) and 10 μM was selected to be the best condition for the following work.
# After successfully establishing the in vitro assay, all of the coumarin compounds were subjected to the screening (at 10 μM) and their SAR was discussed. Although the reporter system can successfully identify CAR-activating compounds under 8 h and display better efficiency and sensitivity compared with western blots, it only presented a medium luciferase response. According to previous studies, CITCO was reported to only moderately enhance human CAR (less than 2-fold), compared with the enhance provided by TCPOBOP for murine CAR (5- to 10-fold) in luciferase reporter assays. […] Another possibility for the medium response in our reporter system might be the contribution of the whole gtPBREM element which might include response-suppressive elements that was used and the single nucleotide variation of DR3 element which was reported to slightly reduce the original UGT1A1 activity.
# The genomic DNA was isolated from Hep3B cells using Wizard® Genomic DNA Purification Kit (Promega, Fitchburg, WI, USA). The promoter region of UGT1A1 gene, gtPBREM element, was amplified by AccuPrime^TM Taq DNA Polymerase High Fidelity Kit (Invitrogen, MA, USA). The sequence of the amplified element was confirmed by DNA sequencing company and cloned into pGL4 luciferase reporter vector. The pGL4-gtPBREM plasmid was transfected into Hep3B cells. The stable pGL4-gtPBREM transfected Hep3B cells, Hep3B-gtPBREM cells, were established after G418 selection. The luciferase activity represented of CAR activation ability was measured using individual established clone. Further, CAR-shRNA was obtained from the Genomic Research Center and transfected into Hep3B-gtPBREM cells. The transient transfected shCAR-Hep3B-gtPBREM cells were used for further luciferase assays.
# The Hep3B-gtPBREM cells and shCAR-Hep3B-gtPBREM cells (1.5 × 10^5 cells/well) were seeded into 12-well plates for overnight then pre-determined concentration compounds were added for desired time. After treatment, transfected cells were washed twice in PBS, lysated with 1× passive lysis buffer and luciferase intensity of equal amount of cell lysate was measured by a Synergy HT Multi-Mode Microplate Reader (BioTek, Winooski, VT, USA).
row,SMILES,CAR activation compared with scoparone
1,"COc1cc(OC)c2ccc(=O)oc2c1O [Compound 57, 5,7-dimethoxy-8-hydroxycoumarin]",comparable CAR activation effects to scoparone; also recorded: superior CAR activating activity than scoparone
2,"COc1cc2ccc(=O)oc2c(OC)c1OC [Compound 58, 6,7,8-trimethoxycoumarin]",comparable CAR activation effects to scoparone
3,"COc1c2c(c3oc(=O)ccc3c1OC)OCO2 [Compound 60, 5,6-dimethoxy-7,8-methylenedioxycoumarin]",good activity; also recorded: superior CAR activating activity than scoparone
4,"COc1cc2oc(=O)ccc2cc1OC1OC(CO)C(O)C(O)C1O (stereo not shown) [Compound 52, isoscopolin]",superior CAR activating activity than scoparone
5,"COc1cc2ccc(=O)oc2cc1O[C@@H]1O[C@H](CO)[C@@H](O)[C@H](O)[C@H]1O [Compound 53, scopolin]",superior CAR activating activity than scoparone
6,"COc1cc2ccc(=O)oc2c2c1OCO2 [Compound 59, 6-Methoxy-7,8-methylenedioxycoumarin]",superior CAR activating activity than scoparone

# Same assay, conditions: 10 μM; compared to scoparone
row,increased CAR activation fold [%],SMILES
1,36,"COc1cc2ccc(=O)oc2c2c1OCO2 [Compound 59, 6-Methoxy-7,8-methylenedioxycoumarin]"

# Same assay, conditions: Table 1; 10 μM; (luminescence of compound − luminescence of scoparone)/luminescence of scoparone × 100%; read-out: CAR Activation Fold
row,activation at 10 µM [%],SMILES
1,-13,"CC(C)=CCCC(C)=CCOc1ccc2ccc(=O)oc2c1 [Compound 25, aurapten]"
2,6,"O=c1ccc2c(O)cccc2o1 [Compound 1, 5-hydroxycoumarin]"
3,-17,C=CCOc1ccc2oc(=O)ccc2c1 [Compound 13]
4,-29,CC(C)=CCCC(C)=CCCC(C)=CCOc1ccc2ccc(=O)oc2c1 [Compound 26]
5,-37,CC(=O)Oc1ccc2ccc(=O)oc2c1 [Compound 21]
6,32,"COc1ccc2oc(=O)ccc2c1 [Compound 10, 6-methoxycoumarin]"
7,-18,CC(C)=CCCC(C)=CCOc1cccc2oc(=O)ccc12 [Compound 7]
8,-15,C=CCOc1cccc2oc(=O)ccc12 [Compound 4]
9,-32,CC(=O)Oc1cccc2oc(=O)ccc12 [Compound 3]
10,-35,CC(C)=CCOc1ccc2ccc(=O)oc2c1 [Compound 24]
11,40,"O=c1ccc2cccc(O)c2o1 [Compound 27, 8-hydroxycoumarin]"
12,19,CC(C)=CCCC(C)=CCCC(C)=CCOc1cccc2ccc(=O)oc12 [Compound 34]
13,-22,CC(=O)Oc1ccc2oc(=O)ccc2c1 [Compound 12]
14,-8,"COc1cccc2ccc(=O)oc12 [Compound 28, 8-methoxycoumarin]"
15,-34,C=CCOc1cccc2ccc(=O)oc12 [Compound 30]
16,-41,CC(C)=CCCC(C)=CCCC(C)=CCOc1ccc2oc(=O)ccc2c1 [Compound 17]
17,-8,"O=c1ccc2cc(O)ccc2o1 [Compound 9, 6-hydroxycoumarin]"
18,-9,CCCCOc1cccc2oc(=O)ccc12 [Compound 5]
19,-20,"COc1cccc2oc(=O)ccc12 [Compound 2, 5-methoxycoumarin]"
20,18,"O=c1ccc2ccc(OC(F)(F)F)cc2o1 [Compound 20, 7-Trifluoromethoxycoumarin]"
21,-30,CC(C)=CCCC(C)=CCOc1cccc2ccc(=O)oc12 [Compound 33]
22,22,CC(C)=CCOc1ccc2oc(=O)ccc2c1 [Compound 15]
23,18,CC(C)=CCCC(C)=CCOc1ccc2oc(=O)ccc2c1 [Compound 16]
24,-33,CC(=O)Oc1cccc2ccc(=O)oc12 [Compound 29]
25,-1,"O=c1ccc2ccc(O)cc2o1 [Compound 18, umbelliferone]"
26,2,CC(C)=CCCC(C)=CCCC(C)=CCOc1cccc2oc(=O)ccc12 [Compound 8]
27,37,CCCCOc1ccc2oc(=O)ccc2c1 [Compound 14]
28,2,CC(C)=CCOc1cccc2ccc(=O)oc12 [Compound 32]
29,-34,"O=c1ccc2cc(OC(F)(F)F)ccc2o1 [Compound 11, 6-Trifluoromethoxycoumarin]"
30,-9,"COc1ccc2ccc(=O)oc2c1 [Compound 19, 7-methoxycoumarin]"

row,SMILES,activation at 10 µM [%]
1,"CCCCOc1cccc2ccc(=O)oc12 [Compound 31, 8-n-Butoxycoumarin]",4

# Same assay, conditions: Table 2; 10 μM; (luminescence of compound − luminescence of scoparone)/luminescence of scoparone × 100%; read-out: CAR Activation Fold
row,activation at 10 µM [%],SMILES
1,-26,CCOc1cc2ccc(=O)oc2cc1OCC [Compound 42]
2,-10,"COc1cc2oc(=O)ccc2cc1O [Compound 37, isoscopoletin]"
3,-22,"O=c1ccc2cc(O)c(O)cc2o1 [Compound 35, esculetin]"
4,35,"COc1cc2oc(=O)ccc2cc1OC1OC(CO)C(O)C(O)C1O (stereo not shown) [Compound 52, isoscopolin]"
5,17,"COc1cc2ccc(=O)oc2cc1O[C@@H]1O[C@H](CO)[C@@H](O)[C@H](O)[C@H]1O [Compound 53, scopolin]"
6,-50,O=c1ccc2cc3c(cc2o1)OCCO3 [Compound 41]
7,-18,"C=CCOc1cc2ccc(=O)oc2cc1OCC=C [Compound 44, 6,7-Dialloxycoumarin]"
8,-1,"COc1cc2ccc(=O)oc2cc1O [Compound 38, scopoletin]"
9,-17,Cc1cc2ccc(=O)oc2cc1C [Compound 36]
10,7,"O=c1ccc2cc3c(cc2o1)OCO3 [Compound 40, ayapin]"
11,-11,CC(=O)Oc1cc2ccc(=O)oc2cc1OC(C)=O [Compound 43]
12,-5,"CCCCCCOc1cc2ccc(=O)oc2cc1OCCCCCC [Compound 49, 6,7-Dihexoxycoumarin]"
13,-32,"CC(C)=CCC/C(C)=C/COc1cc2ccc(=O)oc2cc1OC/C=C(\C)CCC=C(C)C [Compound 51, 6,7-Digeranoxycoumarin]"
14,-37,CCCOc1cc2ccc(=O)oc2cc1OCCC [Compound 45]

row,SMILES,activation at 10 µM [%]
1,"CCCCOc1cc2ccc(=O)oc2cc1OCCCC [Compound 46, 6,7-Di-n-butoxycoumarin]",-39
2,"CC(C)CCOc1cc2ccc(=O)oc2cc1OCCC(C)C [Compound 48, 6,7-Di-isopentoxycoumarin]",-61

# Same assay, conditions: Table 3; 10 μM; (luminescence of compound − luminescence of scoparone)/luminescence of scoparone × 100%; read-out: CAR Activation Fold
row,activation at 10 µM [%],SMILES
1,2,"COc1cc(OC)c2ccc(=O)oc2c1O [Compound 57, 5,7-dimethoxy-8-hydroxycoumarin]"
2,-14,COc1cc(OC)c2ccc(=O)oc2c1OC [Compound 56]
3,-19,"COc1cc2oc(=O)ccc2c(OC)c1OC [Compound 54, 5,6,7-trimethoxycoumarin]"
4,0,"COc1cc2ccc(=O)oc2c(OC)c1OC [Compound 58, 6,7,8-trimethoxycoumarin]"
5,12,"COc1c2c(c3oc(=O)ccc3c1OC)OCO2 [Compound 60, 5,6-dimethoxy-7,8-methylenedioxycoumarin]"
6,36,"COc1cc2ccc(=O)oc2c2c1OCO2 [Compound 59, 6-Methoxy-7,8-methylenedioxycoumarin]"

# Same assay, conditions: read-out: CAR Activation Fold
row,SMILES,activation at 10 µM [%]
1,"COc1cc2oc(=O)ccc2c(OC)c1O [Compound 55, fraxinol]",-17
2,CCCCOc1ccc2ccc(=O)oc2c1 [Compound 23],-51
3,C=CCOc1ccc2ccc(=O)oc2c1 [Compound 22],-46

# System: not given
# Assay: not given
# Conditions: not given
row,melting point [°C],SMILES
1,84 to 85,"C=CCOc1cc2ccc(=O)oc2cc1OCC=C [Compound 44, 6,7-Dialloxycoumarin]"
2,69 to 71,"O=c1ccc2ccc(OC(F)(F)F)cc2o1 [Compound 20, 7-Trifluoromethoxycoumarin]"
3,83 to 85,"O=c1ccc2cc(OC(F)(F)F)ccc2o1 [Compound 11, 6-Trifluoromethoxycoumarin]"

row,SMILES,melting point [°C]
1,"CCCCOc1cc2ccc(=O)oc2cc1OCCCC [Compound 46, 6,7-Di-n-butoxycoumarin]",77 to 79
